This passage reports EC50 and CC50 results from patent US20240226131A1, “2'-CHLORO-2'-FLUORO-N2-AMINO-N6-M[…] NUCLEOTIDES FOR […]” (priority 2021, published 2024).

Molecules are shown by their SMILES.

The test system of series [1] is Dengue virus (DENV-2), New Guinea C. In words: microbe, parasite or virus in culture. Type of series: cell-based. The note with it: DENV2, Huh-7, 144 h, read-out: EC50 (concentration required to prevent virus-induced CPE by 50%).
The test system of series [2] is West Nile virus (WN02 Kern 515). Description: microbe, parasite or virus in culture. The class given is cell-based. Conditions: Huh-7, 144 h, read-out: EC50 (concentration required to prevent virus-induced CPE by 50%).
Series [3] concerns Yellow Fever virus (YFV 17D). In words: microbe, parasite or virus in culture. Type of series: cell-based. The note with it: Huh-7, 120 h, read-out: EC50 (concentration required to prevent virus-induced CPE by 50%).
A short description of the next series: in vitro. The note with it: human.

Consider `CNc1nc(N)nc2c1ncn2[C@@H]1O[C@H](CO[P@@](=O)(N[C@@H](C)C(=O)OC(C)C)Oc2ccccc2)[C@@H](O)[C@]1(F)Cl` [Compound 8, (S)-Isopropyl-2-(((S)-(((2R,3R,4S,5R)-5-(2-amino-6-(methylamino)-9H-purin-9-yl)-4-chloro-4-fluoro-3-hydroxytetrahydrofuran-2-yl)methoxy)(phenoxy)phosphoryl)amino) propanoate], for which the results for the EC50 in series [1], in series [2] and in series [3] were 320 nM, 320 nM and 120 nM, respectively. In the series “in vitro”, this compound had a CC50 of over 100000 nM.
